Assay results from PMC3842960, “Natural Stilbenoids Isolated from Grapevine Exhibiting Inhibitory Effects against HIV-1 Integrase and Eukaryote MOS1 Transposase In Vitro Activities” (PLoS ONE, 2013).

How the values were obtained:
[1] = molecular target: T1, HIV-1 IN (Human immunodeficiency virus type 1 group M subtype B, UniProt P04585); test: HIV-1 IN in vitro concerted integration assay (processed or unprocessed donor DNA); settings: for effect on integration from the processed DNA: processed donor DNA (strand transfer); for inhibition of integration from the unprocessed substrate: unprocessed donor DNA; for differential effect between reactions: strand transfer / processed donor versus 3′processing / unprocessed donor: comparison of concerted integration and 3′processing results
[2] = molecular target: T1, HIV-1 IN; test: HIV-1 IN 3′processing assay; assay type: biochemical; settings: 600 nM IN; increasing concentrations
[3] = system: 293T cells; settings: 72 hours treatment, 1–50 µM, MTS
[4] = molecular target: T2, MOS1 (Drosophila mauritiana, UniProt Q7JQ07); test: MOS1 in vitro activities, overall statements of the discussion; assay type: biochemical, D. mauritiana; settings: in vitro assays of MOS1 activities; discussion
T2 construct: involving the full-length Mos1 transposase (MOS1) was recently solved; made in house
Procedure: (§1) In vitro transposition reactions were performed using pBC-3T3 as both the donor DNA and the target, as previously described. Briefly, the basic transposition reaction mixtures contained 10 mM Tris-HCl (pH 9), 50 mM NaCl, 20 mM MgCl2, 0.5 mM EDTA, 5% glycerol, 5 ng/ml BSA, 600 ng pBC-3T3, and 80 nM purified MBP-MOS1 (added last) in a volume of 20 µl. Inhibitors (25 or 10 µM, as specified) or DMSO (2%) were added to the reaction mixtures before the transposase. The reactions were allowed to proceed for 30 min at 30°C. After phenol-chloroform extraction and ethanol precipitation, 10% of the reaction mixture was transformed in electro-competent JM109 E. coli (2 mm cuvette, 1.5 kV in a MicroPulser™BioRad). Appropriate dilutions of each reaction mixture were plated on LB-tetracycline (12.5 µg/ml) agar and LB-chloramphenicol (80 µg/ml) agar to score the transposition rate. The transposition rate was the number of Tet^R colonies divided by the number of Chloram^R plus Tet^R colonies. Each condition was done at least three times in independent experiments.
Basic excision reaction mixtures contained 10 mM Tris-HCl (pH 9), 50 mM NaCl, 20 mM MgCl2, 0.5 mM EDTA, 0.5 mM DTT, 100 ng BSA, 600 ng of super-coiled pBC-3T3, and 80 nM MBP-MOS1 (added last) in a volume of 20 µl. Molecules (25 or 10 µM, as specified) or DMSO (2%) were added to the reaction mixtures before the transposase. The reactions were allowed to proceed at 30°C for 30 min before 2 µl of stop solution (loading buffer) were added. The reaction mixtures were then incubated at 65°C for 10 min. Each reaction was analysed by overnight electrophoresis at 2.7 V/cm on a TAE-buffered 1% agarose gel with ethidium bromide (0.3 mg/ml). After electrophoresis, the gel was photographed on a transilluminator. ImageGauge 4.22 software (Fujifilm) was used to quantify the bands. Each condition was tested at least twice.
These assays were performed using pre-cleaved 3′ITRs (PC-ITR), i.e. ITRs in the configuration expected after excision. Double-strand ITRs were obtained by annealing equimolar amounts of 70-NTS-PN (5′[…]3′) and 70-TS-PC (5′[…]3′) single-strand oligonucleotides. Prior to annealing, the transferred strand (70-TS-PC) was 5′-end labelled using T4 polynucleotide kinase (Promega) and γ-^32P-ATP following the manufacturer's instructions. Oligonucleotides were provided by Eurofins MWG Biotech (Germany) or Eurogentec (Belgium). Reaction mixtures containing 10 mM Tris-HCl (pH 9), 50 mM NaCl, 1 mM DTT, 5% glycerol, 100 ng BSA, 100 nM of labelled PC-ITR and 100 nM MBP-MOS1 in a final volume of 20 µl were incubated at 30°C for 30 min. The pBC plasmid (which contained the cat gene, a hot-spot for Mos1 insertion) was then added to 30 ng/µL along with 5 mM MgCl2. Molecules (25 or 10 µM, as specified) or DMSO (2%) were added to the reaction mixtures along with the target DNA to estimate their effect on integration. Reactions were carried out for 3 hours at 30°C. 0.1 mg/ml proteinase K and 0.1% SDS were added to stop the reaction. DNA products were purified by phenol-chloroform extraction and ethanol precipitated using standard techniques. DNA products were resuspended in DNA loading buffer, then separated onto a 1% agarose gel in 1X TAE (Tris Acetate EDTA) buffer. The gel was dried onto a nitrocellulose membrane (Hybond N+, GE Healthcare), scanned using a Storm, and analysed with ImageQuant software. Signals were quantified using ImageQuant software. Efficiency of integration was calculated as the intensity of the integration signal divided by the intensity of free target signal plus integration signal. Each condition was tested at least twice.
All molecules were also tested in in vitro assays reproducing integration and excision reactions catalysed by MOS1. […] In contrast, E-resveratrol and E-ε-viniferin glucoside, which act more specifically on HIV-1 3′processing reaction, and E-piceid and E-pterostilbene, which is more efficient on the integration reaction, were not active on MOS1.

[5] = molecular target: T3, Mos1 transposase (MOS1) (Drosophila mauritiana, UniProt Q7JQ07); test: MOS1 in vitro transposition assay (genetic hop experiment); assay type: biochemical, D. mauritiana; settings: for inhibition at 25 µM: DMSO control as reference, read-out: inhibition of the whole MOS1 transposition activity
T3 construct: involving the full-length Mos1 transposase (MOS1) was recently solved; made in house
Procedure: The wild type Mos1 transposase (MOS1: 345 amino acids) was produced and purified as a fusion protein linked to the maltose-binding protein by using the pMal-c2 system (New England Biolabs) and following the manufacturer's instructions.
as §1
To identify the natural stilbenes active on MOS1, the 17 molecules were tested using an in vitro genetic “hop” experiment, which is the most sensitive test available as yet. Purified MOS1 was incubated with the pBC-3T3 plasmid, which was used both as the transposon donor and the target plasmid. This plasmid contains the pBR322 tetracycline resistance gene (without promoter) framed by two Mos1 ITRs. This reconstitutes a pseudo-Mos1 element named 3T3. We took advantage of the fact that the cat gene (present in the pBC backbone) is a hotspot for Mos1 integration. […] Transposition events were recovered by bacterial transformation with selection for tetracycline resistance, as a gain-of-function landmark for transposition. […] Controls correspond to assays performed without molecule but with DMSO, which is routinely used as the solvent. […] To confirm the efficiency of the six molecules, they were similarly assayed at 10 µM ( figure 6B ). Since they appeared to be still active at 10 µM, they were further characterized in order to identify the targeted step of the transposition cycle.

[6] = read-out: inhibition of concerted integration

T2 sequence (Q7JQ07 whole entry): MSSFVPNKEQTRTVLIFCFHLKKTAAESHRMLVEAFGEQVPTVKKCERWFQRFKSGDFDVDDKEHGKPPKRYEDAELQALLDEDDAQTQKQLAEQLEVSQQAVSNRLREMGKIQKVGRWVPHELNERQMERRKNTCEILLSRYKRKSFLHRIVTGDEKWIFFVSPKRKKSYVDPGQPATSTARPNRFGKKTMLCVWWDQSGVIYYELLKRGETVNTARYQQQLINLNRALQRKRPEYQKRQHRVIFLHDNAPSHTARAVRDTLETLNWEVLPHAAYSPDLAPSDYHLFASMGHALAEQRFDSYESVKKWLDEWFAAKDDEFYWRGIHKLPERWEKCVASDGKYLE
T3 sequence (Q7JQ07 whole entry): as above

Row | Compound | inhibition at 10 µM [1, 6] | inhibitory effect on 3′processing [2] | activity on MOS1 [4] | differential effect between reactions: strand transfer / processed donor versus 3′processing / unprocessed donor [1] | inhibition of concerted integration from processed and unprocessed donor ([1]; increasing concentrations) | further results
1 | Oc1ccc(/C=C/c2cc(O)cc3c2[C@H](c2cc(O)cc(O)c2)[C@@H](c2ccc(O)cc2)O3)cc1 [(+)-E-ε-viniferin] | < 5% | – | – | – | – | –
2 | Oc1ccc(/C=C/c2cc(O)cc3c2[C@@H](c2cc(O)cc4c2[C@H](c2cc(O)cc(O)c2)[C@@H](c2ccc(O)cc2)O4)[C@H](c2ccc(O)cc2)O3)cc1 [E-miyabenol C] | < 5% | – | – | – | – | –
3 | Oc1cc(O)cc(/C=C/c2ccc(O)c(O)c2)c1 [E-piceatannol] | – | showed an inhibitory effect | – | – | – | effect on integration from the processed DNA ([1]; increasing concentrations): without having any detectable effect; inhibition of integration from the unprocessed substrate ([1]; increasing concentrations): inhibit integration from the unprocessed substrate; cytotoxicity, cell survival [3]: showed some toxicity
4 | OCC1OC(Oc2cc(O)cc(C=Cc3ccc(O)cc3)c2)C(O)C(O)C1O (stereo not drawn) [E-piceid] | – | – | not active | more active on strand transfer reaction than | inhibited both activities | –
5 | Oc1ccc(/C=C/c2cc(O)cc(O)c2)cc1 [E-resveratrol] | – | showed an inhibitory effect | not active | reaction than on integration | – | effect on integration from the processed DNA ([1]; increasing concentrations): without having any detectable effect; inhibition of integration from the unprocessed substrate ([1]; increasing concentrations): inhibit integration from the unprocessed substrate
6 | Oc1ccc(/C=C/c2cc(O)cc3c2[C@H](c2cc(O)cc(O)c2)[C@@H](c2ccc(O)c(O)c2)O3)cc1 [E-scirpusin A] | – | low | – | – | inhibited both activities | –
7 | OCC1OC(Oc2cc(C=Cc3ccc(O)cc3)c3c(c2)OC(c2ccc(O)cc2)C3c2cc(O)cc(O)c2)C(O)C(O)C1O (stereo not drawn) [E-ε-viniferin glucoside] | – | showed an inhibitory effect | not active | reaction than on integration | – | effect on integration from the processed DNA ([1]; increasing concentrations): without having any detectable effect; inhibition of integration from the unprocessed substrate ([1]; increasing concentrations): inhibit integration from the unprocessed substrate; cytotoxicity, cell survival [3]: showed some toxicity
8 | Oc1ccc([C@@H]2c3c(O)cc(O)cc3[C@H]3c4c(cc(O)cc4[C@H]2O)O[C@@H]3c2ccc(O)cc2)cc1 [ampelopsin A] | < 5% | – | – | – | – | –
9 | Oc1ccc([C@H]2c3c(O)cc(O)cc3[C@H]3c4c(cc(O)cc4C2C2c4cc(O)cc5c4[C@H](c4cc(O)cc(O)c4[C@@H]2c2ccc(O)cc2)[C@@H](c2ccc(O)cc2)O5)O[C@@H]3c2ccc(O)cc2)cc1 (stereo partly drawn) [isohopeaphenol] | < 5% | – | not active | – | – | –
10 | Oc1ccc(C(O)C2c3cc(O)cc(O)c3[C@H](c3ccc(O)cc3)[C@H]2c2cc(O)cc(O)c2)cc1 (stereo partly drawn) [leachianol G] | – | low | also active against MOS1 activities | more active on strand transfer reaction than | inhibited both activities | activity against MOS1 in transposition assay ([5]; 10 µM): still active; inhibition at 25 µM ([5]; 25 µM): > 50%; inhibitory efficiency compared with raltegravir ([1]; concerted integration, increasing concentrations): inhibitory efficiencies close to raltegravir; inhibition at 50 µM [1, 6]: 30 to 60%
11 | Oc1cc(O)cc(-c2cc3ccc(O)cc3o2)c1 [moracin M] | < 5% | – | – | – | – | –
12 | Oc1ccc(/C=C2/c3cc(O)cc(O)c3[C@H](c3ccc(O)cc3)[C@H]2c2cc(O)cc(O)c2)cc1 [quadrangularin A] | – | showed an inhibitory effect | also active against MOS1 activities | better inhibitor of integration from unprocessed than from processed DNA | inhibited both activities | activity against MOS1 in transposition assay ([5]; 10 µM): still active; inhibition at 25 µM ([5]; 25 µM): > 50%
13 | Cc1nnc(C(=O)NC(C)(C)c2nc(C(=O)NCc3ccc(F)cc3)c(O)c(=O)n2C)o1 [raltegravir, reference compound] | – | inhibition property than the selected compounds | – | – | always found better inhibitor than the selected compounds | –
14 | Oc1ccc([C@H]2Oc3cc(O)cc(/C=C/c4ccc5c(c4)[C@@H](c4cc(O)cc6c4[C@H](c4cc(O)cc(O)c4)[C@@H](c4ccc(O)cc4)O6)[C@H](c4ccc(O)cc4)O5)c3[C@@H]2c2cc(O)cc(O)c2)cc1 [vitisin B, E-vitisin B] | < 5% | – | – | – | – | activity against MOS1 in transposition assay ([5]; 10 µM): still active; activity against MOS1 in transposition assay ([5]; 25 µM): active against MOS1
